The values below come from patent publication US6809115B2, “METHODS AND COMPOSITIONS FOR THE TREATMENT OF DIABETES, THE REDUCTION OF BODY FAT, IMPROVEMENT OF INSULIN SENSITIVITY, REDUCTION OF HYPERGLYCEMIA, AND REDUCTION OF HYPERCHOLESTEROLEMIA WITH CHROMIUM COMPLEXES, CONJUGATED FATTY ACIDS, AND/OR CONJUGATED FATTY ALCOHOLS” (Nutrition 21, Inc., priority 2000, dated 2004).

For series [1] the following is noted: patients treated for obesity; cited from earlier work.
For series [2] the following is noted: rats, oral CrCl3, co-administered NSAID; cited from earlier work.
For series [3] the following is noted: growing animals; cited from earlier work.
Series [4] concerns human skeletal muscle culture. The series is described as follows: glucose uptake in human skeletal muscle culture. The class given is cell-based. The note with it: FIGS. 1 and 2, axis in pico Moles per milligram. The source says: FIG. 2 graphs the effect of CP+CLA on glucose uptake in human skeletal muscle culture.
FIG. 3 illustrates the effect of CP+CLA on glucose uptake in human skeletal muscle culture.
Embodiments of the present invention include compositions which contain a conjugated fatty acid or conjugated fatty alcohol in combination with at least one chromium complex. Additionally, uses of the compositions disclosed herein to treat diabetes and/or obesity are provided. The co-administration of a conjugated fatty acid or conjugated fatty alcohol and at least one chromium complex provides a number of advantages over conventional pharmaceutical regimes for the treatment of diabetes and promotion of weight loss. One advantage of the compositions described herein over conventional treatment regimes for diabetes (such as injection of insulin) and weight loss is that compositions comprising a conjugated compound such as a conjugated fatty acid or conjugated fatty alcohol and at least one chromium complex have no known side effects while still providing efficacy in glucose uptake and weight loss. […] Those bars on FIGS. 1, 2, and 3 representing Chromium Picolinate (CP) and Conjugated Linoleic Acid (CLA) are measured in nanograms per milliliter.

For series [5] the following is noted: cited from earlier work.
The conditions of series [6]: in vivo; cited from earlier work.

On to `CCCCCCCCCCC[C@@H](C[C@@H]1OC(=O)[C@H]1CCCCCC)OC(=O)[C@H](CC(C)C)NC=O` [orlistat], for which the side effects result in series [1] is “may have unpleasant gastrointestinal side effects”.

With `CC(=O)Oc1ccccc1C(=O)O` [aspirin, acetylsalicylic acid], in series [2], the chromium absorption entry is recorded as “facilitated”.

For the molecule conjugated linoleic acid [CLA], in series [3], the “reduction of fat gain” value was 25%-70%. Besides, the glucose uptake result in series [4] (basal (without insulin)) and in series [4] (stimulated (with insulin)) was “no effect” throughout. Besides, in series [5] (added to standard diet and exercise), the “effect of CLA alone in obese subjects” value is listed as “no effect”. Besides, the fat mass entry in series [5] (subgroup who did not follow diet and exercise well and gained lean body mass, placebo subjects had increase) is “reduction in fat mass”.

`CC(C)CC(N(C)C)C1(c2ccc(Cl)cc2)CCC1` (stereo not drawn) [Sibutramine]: the side effects entry in series [1] was “increases blood pressure in a subset of patients”.

With chromium picolinate, the “weight loss and body composition” value in series [6] was “modest weight loss and changes in body composition”.
